# Experimental data reported in patent publication US9181172B2, “Rhein conjugates, preparation method thereof and their uses in producing medicines for treating diabetic nephrosis, intestinal adhesion and osteoarthritis” (priority 2005, dated 2015).
# Tests used:
# Format in all cases: in vivo
# rats [1] = test: Formation of granuloma in rats (arthritis example, test 4); settings: 10 mg/kg intramuscular, two weeks
# Protocol: Rats were randomly divided into five groups (model control group, indomethacin group, rhein glucosamine large dose group and small dose group and rhein sodium group). Each group has 10 […]. According to the method in the literature [Xu Shuyun, Methodology in Pharmacological Experiment (the 3rd version): 918], the models were built, and the rats were administered with medicines since the day when starting operations. […] Two weeks later, the rats were killed and test was carried on according to the method in the literature. The net weight of granulation was calculated, and t test was used for the intergroup comparison.
# rats [2] = test: Carrageenan-induced acute pleurisy exudation and leukoplania in rats; settings: intraperitoneal 10 mg/kg, four hours after carrageenan
# Protocol: Forty male rats of 200±20 g weight were selected and divided into five groups, namely, model control group, indomethacin group, rhein sodium group, rhein glucosamine large dose group and small dose group. Eight rats for each group. The rats were administered with medicines by intraperitoneal administration, one hour later, the rats were induced with acute pleurisy by carrageenan according to the method in the literature [Xu Shuyun, Methodology in Pharmacological Experiment (the 3rd version): 916]. Four hours later, the rats were killed and the volume of pleural effusion and total white cell count were measured.
# rats [3] = test: Formation of cotton ball granuloma in rats (Example 59 Test 2)
# Protocol: Rats were randomly divided into five groups (model control group, indomethacin group, rhein glucosamine large dose group and low dose group and rhein sodium group). Each group included 10 rats, and built models according to the method in the literature [Xu Shuyun, Methodology in Pharmacological Experiment (the 3rd version): 918]. The rats were administered by medicines from the day when starting the operation. […] The rats were killed in two weeks, and tests were performed according to the methods in the literature, the net weight of granulation was calculated, and t test was used for the intergroup comparison.
# mice [4] = test: Xylene-induced swelling of auricle in mice; settings: ig 200 mg/kg, 3 days
# Protocol: Fifty male Kunming mice were selected, weighing 18-22 g each, and randomly divided into five groups, namely, model control group, aspirin group, rhein sodium group, rhein glucosamine large dose group and low dose groups. Each group had 10 mice respectively. The mice were administered with medicines by intragastric administration every day, for 0.2 ml/10 g body weight. The mice of the model control group were administered with equal volume of physiological saline, once every day, continuously administration for 3 days. After 60 minutes of the final administration, carried on test according to the method in the literature [Xu Shuyun, Methodology in Pharmacological Experiment (the 3rd version): 911]. The sweeling degree of auricle was calculated and statistical analysis was conducted.
# mice [5] = test: Acetic acid-induced writhing response in mice; settings: ig 200 mg/kg, 12 days
# Protocol: Fifty Kunming mice, half male and half female, weighing 18-22 g each, were selected and randomly divided into five groups, namely, model control group, aspirin group, rhein sodium group, rhein glucosamine large dose group and small dose group, 10 mice for each group. The mice were administered with medicine by intragastric administration every day, 0.2 ml/10 g body weight, once every day, and administered for 12 days in succession. After the final administration of medicines, 30 minutes later, test was carried on according to the methods in the literature [Xu Shuyun, Methodology in Pharmacological Experiment (the 1st version): 882]. The inhibiting rate for writhing response was calculated.
# [6] = tested on: rabbits' ear marginal veins; test: Safety of hydro-acupuncture injection: irritation of rabbits' ear marginal vein; settings: slowly into the vein every two days, three times
# Description: In rabbits' ear marginal vein aseptic operation, rhein sodium salt, rhein arginine conjugates and 0.9% sodium chloride injection liquid were slowly filled into the veins respectively every two days for three consecutive times.
# rats [7] = test: Intestinal adhesion in rats; settings: for Rating of adhesion degree 0: number of 12 rats with completely no adhesion; for Rating of adhesion degree 0 / Rating of adhesion degree III / Rating of adhesion degree I / Rating of adhesion degree IV / Rating of adhesion degree II: 7th day; for Rating of adhesion degree III: number of 12 rats with more than two adhering zones; for Rating of adhesion degree I: number of 12 rats with one adhering zone; for Rating of adhesion degree IV: number of 12 rats with organs adhering to abdominal wall directly; for Rating of adhesion degree II: number of 12 rats with two adhering zones
# Protocol: Rats were fasted for 12 h and models were built according to the methods in the literature [Xu Shuyun, Methodology in Pharmacological Experiment (the 3rd version): 1335]. The rats were randomly divided into five groups, namely, model control group, dexamethasone group, rhein sodium group, rhein glucosamine large dose group and low dose group. Each group included 12 rats. […] The rats of the model group were administered with the same volume of NS, while the rats of the positive control group were administered with dexamethasone, administered once every two days, dose: 10 mg/kg. The administration volume was the same as the treatment group. The rats were killed on the 7th day and carried on laparotomy. Adhesion degree was classified and scored respectively. The classification and score of the observed index-adhesion degree can refer to the five-grade classification method prepared by Nair, and determine the classification standard, see Schedule 13. Intestinal adhesion classification adopts Ridit analysis. The test results are as follows (Table 14): […]
# mice [8] = test: Capillary permeability of mice
# Protocol: Each group has 12 mice, administration: 0.20 ml/10 g. Mice in the model control group were administrated with isovolumic physiologic saline.
# mice [9] = test: Intestinal propulsion in mice; settings: intravenous injection
# Protocol: Fifty mice, male, weighting from 18 to 22 g, were randomly divided into five groups, namely, model control group, domperidone group, rhein sodium group, rhein glucosamine large dose group and low dose group.
# Each group has 10 mice respectively. The mice were fasted, but water was not prohibited, and then administered with medicines by intravenous injection. After that, tests were carried on immediately according to the methods in the literature[Xu Shuyun, Methodology in Pharmacological Experiment (the 3rd version): 1313]. The intestinal propulsive rates were calculated, and t test was used for the intergroup comparison.
compound,measurement,setting,value
COc1ccc2c(c1)c(CC(=O)O)c(C)n2C(=O)c1ccc(Cl)cc1 [indomethacin],Net weight of granulation,rats [1],12.17 ± 2.49 mg
same,Volume of exudation fluid,rats [2],0.26 ± 0.11
same,WBC,rats [2],3.01 ± 1.59 ×109/L
same,net weight of granulation,"rats [3]; 10 mg/kg intramuscular, two weeks",12.21 ± 2.43 mg
CC(=O)Oc1ccccc1C(=O)O [aspirin],inhibition rate,mice [4],48.9%
same,swelling degree of auricle,mice [4],9.1 ± 1.8 mg
same,Inhibiting rate,mice [5],65.6%
same,Times of writhing,mice [5],11.1 ± 6.3 per/20 min
Rhein Arginine Conjugate,biopsy of rabbits' ear marginal vein,[6],"normal without endothelial injuries, thrombosis and other pharmacological change"
same,irritation on rabbits' ear marginal veins,[6]; vs 0.9% sodium chloride,no irritation
same,abdominal adhesion ratings compared with the control group,"rats [7]; large dose and low dose groups, p<0.05",statistical significances
same,Rating of adhesion degree 0,rats [7]; 6 mg/kg once a day,1
same,Rating of adhesion degree 0,rats [7]; 12 mg/kg once a day,3
same,Rating of adhesion degree III,rats [7]; 6 mg/kg once a day,3
same,Rating of adhesion degree III,rats [7]; 12 mg/kg once a day,2
same,Rating of adhesion degree I,rats [7]; 6 mg/kg once a day,4
same,Rating of adhesion degree I,rats [7]; 12 mg/kg once a day,5
same,Rating of adhesion degree IV,rats [7]; 6 mg/kg once a day,1
same,Rating of adhesion degree IV,rats [7]; 12 mg/kg once a day,0
same,Rating of adhesion degree II,rats [7]; 6 mg/kg once a day,3
same,Rating of adhesion degree II,rats [7]; 12 mg/kg once a day,2
same,absorbance value,mice [8]; dosage 12 mg/kg,0.476 ± 0.096
same,absorbance value,mice [8]; dosage 24 mg/kg,0.455 ± 0.105
same,inhibition of the formation of cotton ball granuloma compared with the model group,"rats [3]; ig, large dose and low dose groups, p<0.01",significant effect on the inhibition
same,Propulsive rate,mice [9]; dosage 12 mg/kg,53.81 ± 8.9 %
same,Propulsive rate,mice [9]; dosage 24 mg/kg,66.47 ± 9.7 %
